Experimental data reported in article PMC11524583, “Neurons enhance blood–brain barrier function via upregulating claudin-5 and VE-cadherin expression due to glial cell line-derived neurotrophic factor secretion” (eLife, 2024).
Like-named read-outs stand apart in the source and are kept apart here. Marks after values point to notes of the source that are not given here.

What was measured:
[1] = tested on: hCMEC/D3 mono-culture BBB model; conditions: human
in vitro [2] = conditions: human
in vitro [3] = conditions: human; remark: listed apart in the source
[4] = unbound fraction in brain, cited from earlier work
[5] = in situ brain perfusion in rodents; published permeability multiplied by VSA 150 cm^2/g; ref Summerfield et al., 2007; cited from earlier work
[6] = tested on: triple co-culture BBB model (hCMEC/D3, U251 and SH-SY5Y cells); assay: In vitro BBB permeability study (Papp), triple co-culture BBB model; conditions: Triple co-culture BBB model; PS worked out from mean Papp
[7] = tested on: hCMEC/D3 mono-culture BBB model; assay: In vitro BBB permeability study (Papp), hCMEC/D3 mono-culture BBB model; conditions: Mono-culture BBB Model; PS worked out from mean Papp
[8] = Papp, Triple, apical to basolateral, 30 min, 37°C, day 6, mean ± SEM, four biological replicates

Structure (SMILES)	PSPre, Mono [1] [µL/min/g]	fu, brain ([4]; ref Summerfield et al., 2007)	Papp A→B (in vitro [3]; [8]) [×10⁻⁶ cm/s]	PSObs [5]	PS [6] [µL/min/g]	PS [7] [µL/min/g]	further results
CC(NC(C)(C)C)C(=O)c1cccc(Cl)c1 (stereo not shown) [Bupropion]	1139.58	–	–	–	–	–	Papp A→B at 30 min (in vitro [2]; Papp, Mono): 15.2 ± 0.2 ×10⁻⁶ cm/s; Papp A→B at 30 min (in vitro [3]; Papp, Triple): 11.3 ± 0.44 ×10⁻⁶ cm/s; fu, brain ([4]; ref Bhattacharya et al., 2021): 0.12^§
CNCCC(Oc1ccc(C(F)(F)F)cc1)c1ccccc1 (stereo not shown) [Fluoxetine]	–	0.004^†	–	–	–	–	fu, brain ([4]; ref Liu et al., 2005): 0.00094; fu, brain ([4]; ref Maurer et al., 2005): 0.0023
NCC1(CC(=O)O)CCCCC1 [Gabapentin]	192.77	0.782^†	8.78 ± 0.23	162.90^† μl/min/g	101.05	192.77	Papp A→B (in vitro [2]; Papp Mean, Mono-culture BBB Model, mean of 4 replicates): 16.7 ×10⁻⁶ cm/s
Nc1nnc(-c2cccc(Cl)c2Cl)c(N)n1 [Lamotrigine]	–	0.273^†	–	–	–	–	–
Cc1ncc2n1-c1ccc(Cl)cc1C(c1ccccc1F)=NC2 [Midazolam]	5060.00	–	19.1 ± 0.24	2727.00^† μl/min/g	3818.00	5060.00	Papp A→B (in vitro [2]; Papp, Mono, apical to basolateral, 30 min, 37°C, day 6, mean ± SEM, four biological replicates): 25.3 ± 1 ×10⁻⁶ cm/s; Papp A→B (in vitro [3]; Papp Mean, Triple co-culture BBB model, mean of 4 replicates): 19.1 ×10⁻⁶ cm/s; fu, brain ([4]; ref Kodaira et al., 2011): 0.045^‡ ‡
Cc1cc2c(s1)Nc1ccccc1N=C2N1CCN(C)CC1 [Olanzapine]	–	0.034^†	–	2279.70^† μl/min/g	–	–	–
